From US20060004195A1, “Alpha,beta-unsaturated esters and acids by stereoselective dehydration” (priority 2004, published 2006)

melting point [°C] | Compound
295.5 to 297.5 | COc1ccc(-n2nc(C[C@H](C(=O)[O-])c3cccc(C)c3)cc2-c2ccc(Cl)c(Cl)c2)cc1.[Na+] (stereo in doubt)
174 | O=C(O)/C(=C\c1cc(-c2ccc3c(c2)OCO3)n(-c2cc(Cl)ccc2Cl)n1)c1cccc(Cl)c1 [Example 606, (Z)-3-[5-Benzo[1,3]dioxol-5-yl-1-(2,5-dichloro-phenyl)-1H-pyrazol-3-yl]-2-(3-chloro-phenyl)-acrylic acid]
